Measured values taken from patent US20120308562A1, “METHODS OF TREATING MESOTHELIOMA WITH A PI3K INHIBITOR COMPOUND” (priority 2011, published 2012).
Read-outs that look alike come from different tables or passages of the source.

How the values were obtained:
MCF7-neo/HER2 cell line = MCF7-neo/HER2 cell line IC50; assay type: cell-based
[1] = stability in human microsomes; assay type: in vitro ADME
[2] = stability in human hepatocytes; assay type: in vitro ADME
hERG = hERG (Homo sapiens, UniProt Q12809); assay: hERG activity
clearance in rodents = settings: in vivo
clearance in dogs = settings: dog, in vivo
[3] = pharmacokinetics after a single oral dose (species not given); assay type: in vivo; settings: species not stated
[4] = tested on: MDA-MB-361.1 breast cancer xenograft; assay: MDA-MB-361.1 breast cancer xenograft model; assay type: in vivo; settings: QD
MDA-MB-361.1 xenografts = assay: nonclinical PK/PD model of tumor growth inhibition with predicted human PK; settings: predicted human PK and nonclinical PD data, preliminary
Excerpt: A nonclinical PK/PD model of tumor growth inhibition was developed using the indirect response model (Jusko W J. “Pharmacodynamics of chemotherapeutic effects: dose-time-response relationships for phase-nonspecific agents”, J Pharm Sci (1971) 60:892-5) to fit exposure and growth inhibition data based on four sets of experiments examining varying schedules and doses in the MDA-MB-361.1 xenografts. The PK/PD model was then used to predict minimal exposure needed to achieve 50% tumor growth inhibition, using the predicted human PK data and the nonclinical PD data. […] On the basis of MLP allometric scaling, a daily dose of approximately 18 mg may achieve this exposure. Dose escalation will continue until the MTD, even if 1.7 μM·hr exposure is surpassed and well tolerated, since it is well established that tumor xenograft models are not absolutely predictive of clinical response (Sausville and Burger 2006).

[5] = Phase I clinical pharmacokinetics (plasma, LC-MS/MS); assay type: in vivo, human; settings: for AUC(0-t): oral, individual patient, read-out: AUC0-24 h
Protocol: For Cycle 1 of the Phase I study, a single dose of GDC-0980 is administered to patients on Day 1 in a clinical setting that can accommodate frequent blood draws over a period of up to 48 hours after the dose is administered. Daily dosing will begin on Day 8 and continue for 21 days (Days 8-28), followed by a 7-day off-drug observation period (Days 29-35). Subsequent cycles will be 28 days in length (21 days of daily dosing followed by a 7-day observation period). Additional cohorts may be added to examine the tolerability of a 28-day dosing schedule with no observation period after the MTD is […] defined for the 21-day dosing schedule. GDC-0980 should be taken on an empty stomach (fasting) in the morning, unless otherwise instructed. For all patients Days 1 and 15 (PK sampling days), patients should be fasted overnight (at least 8-10 hours) prior to their dose on those days. On other days, patients should avoid consuming anything but water for 1 hour before and 2 hours after GDC-0980 administration. Each dose should be taken with a minimum of 3-4 ounces of water. […] PK: Plasma GDC-0980 concentrations were assayed by LC-MS/MS (Tandem Labs, Inc., Salt Lake City, Utah) with LLOQ 0.5 ng/mL and analyzed using noncompartmental analysis.

pAKT (S473) in PRP = assay: pAKT in platelet-rich plasma (MSD assay), Phase I; assay type: in vivo, human
Protocol: pAKT in PRP: Total AKT and pAKT (S473) in PRP were measured by Meso Scale Discovery (MSD) assay, and the percent change in pAKT relative to baseline was calculated.

[6] = in vivo
Protocol: (§1) Patients with a history of Type 1 or 2 diabetes mellitus requiring regular medication were excluded. GDC-0980 was administered on Day 1, followed by 1 week of washout to evaluate single-dose PK and PD markers. GDC-0980 was then dosed QD for either 21 days or 28 days every 28-day cycle. Tumor assessments were performed after Cycles 1, 2, and then every 2 cycles using RECIST guidelines. Optional FDG-PET was obtained between Days 22-28 and Days 50-57.
(§2) Fasted blood glucose & insulin were monitored at clinical visits (pre-dose & 2 hrs post-dose). Dosing with GDC-0980 was allowed with =G2 blood glucose with appropriate monitoring, i.e., additional monitoring in clinic and fingerstick glucose testing at home.
(§3) Safety Analyses: All patients who receive any amount of GDC-0980 therapy will be included in the safety analyses. Safety will be assessed through summaries of adverse events, deaths, and changes in laboratory test results. All adverse events for all patients will be collected for the safety dataset. Verbatim descriptions of adverse events will be mapped to thesaurus terms. All recorded adverse event data will be listed by study site, patient, and cycle. All adverse events occurring on or after the first treatment will be summarized by mapped term, appropriate thesaurus levels, and NCI CTCAE, v3.0 toxicity grade. All serious adverse events will be listed separately and summarized. In addition, the incidence of symptomatic CHF and/or LVEF <40% will be summarized. Deaths reported during the study treatment period and those reported during follow-up after patient treatment discontinuation will be summarized. Laboratory data will be summarized by grade using the NCI CTCAE, v3.0 toxicity grade. Changes in LVEF over time will be summarized and listed by scheduled measurement time. The occurrence of antibodies to GDC-0980 will be listed.

mTOR = mTOR (Homo sapiens, UniProt P42345); assay: biochemical
[7] = Phase I safety and tolerability
Protocol: as §1, §2, §3

mesothelioma = assay: Phase I tumor response by RECIST, mesothelioma patients; settings: person; for decrease in target lesions by RECIST: 21/28 day schedule
Protocol: Tumor assessments (CT and/or magnetic resonance imaging [MRI] scans) are performed approximately every 6 weeks irrespective of dose delays, interruptions, or reductions. Bone and brain scans (either CT or MRI) may be performed at baseline and if clinically indicated during the study. Patient management decisions were made based on tumor assessments performed by investigators. The primary study endpoints related to response were determined by an independent radiologic review of patient scans, with assessments based on investigator reporting being secondary. If each non-target lesion cannot be assessed at a follow-up tumor assessment timepoint, patients may still be considered evaluable for timepoint response as long as all target lesions are measured. Patients with non-target lesions that were not assessed at a timepoint were assessed as having a partial response, stable disease, or progressive disease. All lesions, target and non-target, were assessed before a response was considered confirmed. To reduce the frequency of unevaluable non-target lesions, bone lesions visible on baseline CT scan as non-target lesion(s) for follow-up, were compared with bone lesions identified on the baseline bone scan where possible if lesions are not visible on both modalities or as easily and reproducibly assessed.
Tumor assessments were performed after Cycles 1, 2, and then every 2 cycles using RECIST guidelines. Optional FDG-PET was obtained between Days 22-28 and Days 50-57.

adrenal cortical cancer = assay: Phase I tumor response by RECIST, adrenal cortical cancer patient; settings: person, 40 mg QD, 28/28 day schedule
Protocol: (§4) Tumor assessments (CT and/or magnetic resonance imaging [MRI] scans) are performed approximately every 6 weeks irrespective of dose delays, interruptions, or reductions. Bone and brain scans (either CT or MRI) may be performed at baseline and if clinically indicated during the study. Patient management decisions were made based on tumor assessments performed by investigators. The primary study endpoints related to response were determined by an independent radiologic review of patient scans, with assessments based on investigator reporting being secondary. If each non-target lesion cannot be assessed at a follow-up tumor assessment timepoint, patients may still be considered evaluable for timepoint response as long as all target lesions are measured. Patients with non-target lesions that were not assessed at a timepoint were assessed as having a partial response, stable disease, or progressive disease. All lesions, target and non-target, were assessed before a response was considered confirmed. To reduce the frequency of unevaluable non-target lesions, bone lesions visible on baseline CT scan as non-target lesion(s) for follow-up, were compared with bone lesions identified on the baseline bone scan where possible if lesions are not visible on both modalities or as easily and reproducibly assessed. […]

solid tumors = assay: Phase I best RECIST response and time on study, all enrolled patients; settings: peritoneal mesothelioma and adrenal cancer patients
Protocol: as §4

[8] = human, plasma, patients, single oral dose

Sequence of hERG (Q12809 whole entry): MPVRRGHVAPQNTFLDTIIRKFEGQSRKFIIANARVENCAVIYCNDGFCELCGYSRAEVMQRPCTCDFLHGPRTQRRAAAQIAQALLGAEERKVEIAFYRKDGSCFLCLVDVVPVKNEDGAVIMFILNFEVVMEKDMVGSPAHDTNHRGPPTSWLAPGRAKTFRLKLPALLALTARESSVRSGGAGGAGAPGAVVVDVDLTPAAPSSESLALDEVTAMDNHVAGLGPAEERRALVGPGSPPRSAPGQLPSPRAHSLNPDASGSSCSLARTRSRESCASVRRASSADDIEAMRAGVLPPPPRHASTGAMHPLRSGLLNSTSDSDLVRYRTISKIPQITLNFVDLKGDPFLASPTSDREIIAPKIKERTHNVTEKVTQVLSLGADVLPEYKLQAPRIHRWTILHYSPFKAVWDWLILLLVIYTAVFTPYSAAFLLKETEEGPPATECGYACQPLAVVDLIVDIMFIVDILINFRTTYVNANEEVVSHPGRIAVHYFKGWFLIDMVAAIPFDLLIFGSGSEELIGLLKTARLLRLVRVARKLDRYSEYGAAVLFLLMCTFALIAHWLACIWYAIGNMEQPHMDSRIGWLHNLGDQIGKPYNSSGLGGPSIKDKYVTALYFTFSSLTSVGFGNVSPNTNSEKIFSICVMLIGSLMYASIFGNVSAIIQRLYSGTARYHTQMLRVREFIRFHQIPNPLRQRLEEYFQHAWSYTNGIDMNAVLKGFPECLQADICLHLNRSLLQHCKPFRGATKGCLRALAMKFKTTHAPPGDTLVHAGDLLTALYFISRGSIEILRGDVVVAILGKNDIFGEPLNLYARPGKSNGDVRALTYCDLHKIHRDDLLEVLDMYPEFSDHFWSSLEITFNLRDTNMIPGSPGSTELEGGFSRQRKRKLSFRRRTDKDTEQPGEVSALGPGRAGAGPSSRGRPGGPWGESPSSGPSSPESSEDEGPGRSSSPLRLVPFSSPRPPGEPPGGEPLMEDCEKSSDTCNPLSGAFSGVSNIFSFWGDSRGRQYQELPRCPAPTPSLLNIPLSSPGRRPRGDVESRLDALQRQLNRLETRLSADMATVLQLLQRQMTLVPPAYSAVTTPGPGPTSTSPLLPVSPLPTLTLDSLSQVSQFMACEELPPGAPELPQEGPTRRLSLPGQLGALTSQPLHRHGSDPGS

## Cc1c(CN2CCN(C(=O)[C@H](C)O)CC2)sc2c(N3CCOCC3)nc(-c3cnc(N)nc3)nc12 [GDC-0980, (S)-1-(4-((2-(2-aminopyrimidin-5-yl)-7-methyl-4-morpholinothieno[3,2-d]pyrimidin-6-yl)methyl)piperazin-1-yl)-2-hydroxypropan-1-one]
MCF7-neo/HER2 cell line
  IC50: 320 nM
[1]
  stability in human microsomes: stable
[2]
  stability in human hepatocytes: stable
hERG
  IC50: > 100000 nM
Clearance in rodents
  clearance: 60 mL/min/kg
Clearance in dogs
  clearance: 12 mL/min/kg
[3]; in vivo, read-out: terminal half-life
  half-life: 6 to 18 h
[3]
  dose dependence of AUC and Cmax: dose-proportional increases
[4]
  minimum dose producing significant growth inhibition: 1.0 mg/kg
MDA-MB-361.1 xenografts
  minimal exposure (AUC) needed to achieve 50% tumor growth inhibition: approximately 1.7 μM·hr
[5]; human, plasma, 8 mg QD, 21/28 day schedule
  AUC(0-t): ~0.4 µM·h
[5]; human, plasma, 32 mg QD, 21/28 day schedule
  AUC(0-t): ~4.4 µM·h
[5]; human, plasma, 40 mg QD, 28/28 day schedule
  AUC(0-t): ~4.1 µM·h
[5]; human, plasma, 50 mg QD, 21/28 day schedule
  AUC(0-t): ~3 µM·h
[5]; [8]
  Tmax: ~2 h
  half-life: 6 to 18 h
[5]; patients, single oral dose
  dose dependence of AUC and Cmax: dose-proportional increases
pAKT (S473) in PRP; doses of 16 mg
  decrease in pAKT in PRP: 90%
pAKT (S473) in PRP; doses of 50 mg
  time for which significant inhibition of pAKT was maintained: 24 hours
[6]; human
  patients with increased blood glucose: 83.3%
[6]
  drug-related AEs that occurred in =10% of patients: fatigue, diarrhea, rash, nausea, decreased appetite, mucositis, hyperglycemia, vomiting, pruritus, GERD (Gastroesophageal reflux disease), and constipation
  number of patients with G3 increased blood glucose: Six
mTOR
  Ki: 17.3 nM
[7]; QD, 21/28-day schedule
  dose at which the MTD was exceeded: 70 mg
[7]; metastatic colorectal cancer patient, 50 mg QD, about 1 week after starting Cycle 2
  G5 adverse event considered related to GDC-0980: G5 adverse event of colitis
mesothelioma; epitheloid mesothelioma, 8 mg QD, 21/28
  time on study before progression of disease: about 4.5 months
mesothelioma; epitheloid mesothelioma, PIK3CA R88Q, 8 mg QD, end of Cycle 2
  decrease in target lesions by RECIST: 26%
mesothelioma; epitheloid pleural mesothelioma, 50 mg QD, end of Cycles 1 and 2
  decrease in target lesions by RECIST: 26%
mesothelioma; peritoneal mesothelioma, 32 mg QD, end of Cycle 6
  decrease in target lesions by RECIST: 28%
Adrenal cortical cancer; after 3 weeks of treatment in Cycle 2
  decrease in target lesions by RECIST: 39%
Adrenal cortical cancer; end of Cycle 1
  decrease in target lesions by RECIST: 22%
Solid tumors
  number of patients still on study after a year: 2
